Results reported in a melting point compilation (Tetko et al.; mined from patent text by program, amines drawn as free bases though some values may be those of a salt).

melting point	Compound
163 to 166 °C	Cc1nc2c(OCc3ccccc3)cccn2c1CC#N
82 to 84 °C	CCN1CC(=O)N(c2ccccc2C)C1=S
105 to 106 °C	CC(O)(C(O)CI)C(O)CI (stereo unspecified)
99 to 101 °C	CCCc1c(O)ccc2oc(C(=O)OCC)cc12
225 °C	O=C1CC(c2cccc(-n3ccnc3)c2)=Nc2cc(N3CCC4(CC3)OCCO4)c(-c3ccccc3F)cc2N1
188 to 190 °C	Cc1ccc(CSC(=S)N2Cc3[nH]c4ccccc4c3CC2C(=O)O)cc1 (stereo unspecified)
171 °C	CC(c1cc(Cl)cc(Cl)c1O)c1cc(F)cc(Cc2cc(Cl)cc(Br)c2O)c1O (stereo unspecified)
179 to 182 °C	O=c1c2ccc(O)cc2oc2c([N+](=O)[O-])ccc(Cl)c12
115 °C	COc1cccc2c1CC(N(CCCc1c[nH]c3ccc(F)cc13)C1CC1)CO2 (stereo unspecified)
261 to 262 °C	O=C(O)c1cc2cc(OCCNC[C@H](O)COc3ccccc3)ccc2s1
169 to 170 °C	COc1cnc(Cl)c(C(=O)O)c1
68 to 70 °C	C=C1c2ccccc2CC(=O)Cc2ccccc21
152 to 153 °C	OC(CCc1ccccc1)c1cnc2sc3c(n12)CCCC3 (stereo unspecified)
> 130 °C	CCCCc1nn(-c2cc(NC(=O)CCC)ccc2Cl)c(=O)n1Cc1ccc(-c2ccccc2S(=O)(=O)NC(=O)c2ccccc2Cl)cc1
166 to 169 °C	Cc1cccc(C(=O)NN=Cc2cccc(Cl)c2O)c1
181 to 183 °C	CCc1c(NC(=O)OC(C)(C)C)cccc1NC(=O)c1ccc(Br)cc1
32 to 34 °C	COC(=O)c1sc(Cl)nc1C(F)(F)F
108 to 109 °C	COC(=O)C1=Cc2ccc(O)cc21
252 to 255 °C	Cc1cc(S(=O)(=O)O)ccc1NC(=O)NN
150 °C	CC1(C)Cc2c(c(N3CCOCC3)nc3sc4c(N(CCN5CCOCC5)Cc5cccnc5)ncnc4c23)CO1
127 to 130 °C	CC(=O)N(CCCCn1ccnc1)C1=Nc2cccc3cccc1c23
163 to 165 °C	NS(=O)(=O)c1ccc(Cl)cc1NC(=O)Nc1cccc(C(F)(F)F)c1
137 to 138 °C	CC1(C)C=Cc2cc(C#N)c(N)cc2O1

melting point	Compound
161 to 163 °C	CN(C)C=NS(=O)(=O)c1cc2cnc(CO)cc2o1
167 to 168 °C	CC1(C)Oc2c([N+](=O)[O-])ccc(Cl)c2C1=O
350 to 352 °C	O=C(O)c1ccc2c(c1)CCc1ccc(C(=O)O)cc1S2(=O)=O
134 to 135 °C	NS(=O)(=O)c1ccc(C2=C(c3ccc(Cl)c(Cl)c3)CCC2)cc1
113 to 115 °C	CCC(O)c1c(S(N)(=O)=O)nn(C)c1C(C)(C)C (stereo unspecified)
192 to 193 °C	COc1c(N2CCCC(CN)C2)c(F)cc2c(=O)c(C(=O)O)cn(C3CC3)c12 (stereo unspecified)
146 to 148 °C	COc1ccc(N2CCN(c3c(C)c(C)c4c(c3C)C(N3CCCCC3)C(C)(C)O4)CC2)cc1 (stereo unspecified)
208 to 209 °C	COC(c1ccc(Cl)c2nc3n(c12)CCCN3c1ccc(Cl)cc1C(F)(F)F)C1CC1 (stereo unspecified)
110 to 112 °C	COc1cc(C)ccc1S(=O)(=O)OC(Cl)C(=O)c1ccccc1 (stereo unspecified)
189 to 190 °C	N#CCC(=O)c1nn(-c2ccccc2)c2c1Cc1ccccc1-2
212 to 214 °C	COC(=O)c1ccc2oc3c(c(=O)c2c1)CCC3=Cc1ccc(C)cc1C
73 to 74 °C	CC(C)(C)OC(=O)n1cnc2c(I)cc(F)cc21
188 to 189 °C	NC(=O)Cc1ccc2c(c1)CCc1ccccc1S2
150 to 151 °C	O=C(O)c1cccc(OCc2cc(Cl)cc(Cl)c2)c1OCc1cc(Cl)cc(Cl)c1
169 to 171 °C	Cn1c(COc2ccc(CC3SC(=O)NC3=O)cc2)nc2ccc(Oc3cccc(NC(=O)Nc4ccc(F)cc4)c3)cc21 (stereo unspecified)
100 to 101 °C	CN1CCC2(CC1)Oc1ccccc1Cn1cccc12
108 to 110 °C	CCOc1cccc(NC(=O)Nc2ccc(N3CCN(C(=O)Nc4ccc(OCCO)cc4C(F)(F)F)CC3)cc2)c1
176 to 178 °C	O=C(O)c1ccc(C(=O)NC/C=C/c2ccccc2)cc1
86 to 87 °C	Cc1cccc(-n2nc(C)cc2-c2ccnc(NCCc3ccccc3)c2)c1
133 to 135 °C	CCn1c(=O)oc2cc([N+](=O)[O-])ccc21
164 to 165 °C	CC(C)Cc1nc2ccc(Br)cc2c(-c2ccccc2)c1CN1C(=O)c2ccccc2C1=O
136 to 138 °C	CCOC(=O)N(CC(=O)O)C(=O)c1c(F)ccc2c(C(F)(F)F)c(OC)ccc12
86 to 87 °C	COC(=O)Cc1nc(-c2ccc3ccccc3c2)oc1C

melting point	Compound
128 to 130 °C	CN1CCC(OC(=O)C(C)(c2ccc(O)cc2)C2CCCC2)CC1 (stereo unspecified)
190 to 193 °C	N#Cc1ccc(-c2ccc(OCc3ccc4ccccc4n3)cc2)c(-c2ccncc2)c1
184 to 188 °C	COC(=O)Nc1ccc(C(=O)N(C)C)c(S(=O)(=O)NC(C)(C)C)c1
123 to 124 °C	O=C(O)CC(Cc1ccccc1)N1C(=O)c2ccccc2C1=O (stereo unspecified)
223 to 225 °C	O=[N+]([O-])c1cc2c(Nc3cccc(Cl)c3)ncnc2cc1F
175 to 176 °C	Cc1cc(C(O)(C(F)(F)F)C(F)(F)F)cc(C)c1NCCC(=O)O
244 °C	CS(=O)(=O)n1c(Cc2ccc(C(=O)O)cc2)cc2cc(Cl)ccc21
142 to 143 °C	O=C(O)[C@H](Cc1cccc(OCC(F)(F)F)c1)[C@@H](O)c1ccc(F)cc1 (racemic)
165 to 167 °C	C=CCn1cc(Cn2ccnc2)c2cc(O)ccc21
102 to 104 °C	CCCOc1ccc2c(c1)NC(=O)CO2
101 °C	CS(=O)(=O)Nc1cc2c(cc1Oc1ccc(F)cc1F)C(=O)CC2c1ccccc1 (stereo unspecified)
123 to 130 °C	CCN1C(=O)C(C)(C)C(=O)N(C)c2cc(CN(CCn3ccc4oc(C)cc4c3=O)Cc3ccccc3-n3cccn3)ccc21
161 to 163 °C	Cn1cc(Br)cc(Nc2ccn(C3CC3)n2)c1=O
196 to 197 °C	O=C1C(=Cc2ccccc2O)c2ccccc2N1C1=NCCS1
105 to 106 °C	CN(C)C=Cc1ncc([N+](=O)[O-])n1CCN1CCOCC1
184 to 185 °C	CCNC(=O)Nc1nc2ccc(Cc3ccccn3)cc2s1
158 to 159 °C	CC(C)(C)NC(=O)[C@H](Cc1ccc([N+](=O)[O-])cc1)NC(=O)OC(C)(C)C
> 250 °C	CCCCOc1ccc(-c2nc(-c3ccc(Sc4ccccc4)cc3)nc(-c3ccc(OCCCC)cc3O)n2)c(O)c1
147 to 148 °C	O=S(=O)(CCCl)CCC(F)(F)C(F)(F)C(F)(F)C(F)(F)C(F)(F)C(F)(F)C(F)(F)C(F)(F)C(F)(F)C(F)(F)F
89 °C	CCCOC(=O)CCNCC(O)COc1ccccc1C#N (stereo unspecified)
233 to 235 °C	CC(Cn1cnnn1)n1nnc2cc3c(=O)n(C4CC4)nnc3cc2c1=O (stereo unspecified)
228 to 230 °C	CSC1C(=O)Nc2cccc([N+](=O)[O-])c21 (stereo unspecified)

Compound	melting point
COc1cc2c3c(c1)-c1c(O)cccc1CC3N(C)CC2 (stereo unspecified)	214 to 215 °C
COC1CSC2=C(SC1)C(OC(=O)N1CCN(C)CC1)N(c1ccc(Cl)cn1)C2=O (stereo unspecified)	197 °C
CN1Cc2ccc(Cl)cc2P1(=O)c1ccccc1 (stereo unspecified)	159 to 162 °C
